Source: patent US20180282818A1, “Therapeutic Cancer Treatments Based on TP53 Gene Mutations” (The Wistar Institute of Anatomy and Biology, priority 2015, published 2018)

Legend:
Assay type in all cases: cell-based
S47 tumor cells = test: Sensitivity of E1A/Ras-transformed S47 tumor cells compared to WT cells; conditions: S47 and WT cells expressing E1A/Ras
Description: S47 and WT cells expressing E1A/Ras were analyzed.
A tumorigenic (transformed) version of WT and S47 cells may be created as follows. WT and S47 cells were transfected with two oncogenes (E1A and Ras).

wild type cells = test: Resazurin cytotoxicity screening, wild type cells; conditions: 72 hours, resazurin fluorescence, normalized to doxorubicin and DMSO, read-out: WT EC50
Description: (§1) The screening methods were performed as follows. S47 and wild type cells were plated at a density of 750 cells/well in a total volume of 50 μL in 384 well Greiner microplates. The cells were allowed to attach overnight at 37° C. and then dosed with 50 nL of compound serially diluted in DMSO. Following compound addition, the assay plates were incubated at 37° C. for 72 hours, followed by the addition of 5 μL of […] Resazurin. The plates were incubated at 37° C. for 8-10 hours and then fluorescence was measured using a Perkin Elmer Envision plate reader (excitation at 530-560 nm, emission at 590 nm). Raw fluorescent counts were uploaded into Spotfire and normalized to doxorubicin (positive control) and DMSO (negative control) treated wells (n=12/plate). EC50 values were calculated by applying a logistic regression curve fit and expressed as μM compound that was effective in killing 50% of the cell population at 72 hours.

S47 cells = test: Resazurin cytotoxicity screening, S47 cells; conditions: for EC50: S47 cells, 72 hours, resazurin fluorescence, normalized to doxorubicin and DMSO; for Fold-sensitive, S47 / Fold-resistant, S47: S47 versus WT EC50
Description: as §1

Row | Compound | Sensitivity of S47 tumor cells compared to WT cells (S47 tumor cells) | EC50 (wild type cells) [nM] | EC50 (S47 cells) [nM] | Fold-sensitive, S47 (S47 cells) | Fold-resistant, S47 (S47 cells)
1 | COc1cccc2cc(-c3nc([C@H]4CC[C@H](C(=O)O)CC4)n4ncnc(N)c34)[nH]c12 [OSI027, trans-4-[4-amino-5-(7-methoxy-1H-indol-2-yl)imidazo[5,1-f][1,2,4]triazin-7-yl]cyclohexanecarboxylic acid] | more sensitive | 745 | 173 | 4.3 | 
2 | COc1cccc2c1C(=O)c1c(O)c3c(c(O)c1C2=O)C[C@@](O)(C(=O)CO)C[C@@H]3O[C@H]1C[C@H](N)[C@H](O)[C@H](C)O1 [Doxorubicin] |  | 146 | 292 |  | 2
3 | Cc1[nH]c2ccccc2c1CCNCc1ccc(/C=C/C(=O)NO)cc1 [LBH589] |  | 3.2 | 6.6 |  | 2
4 | CC[C@@]1(O)C(=O)OCc2c1cc1n(c2=O)Cc2cc3ccccc3nc2-1 [camptothecin] | less sensitive |  |  |  | 
5 | COc1ncc(-c2ccc3nccc(-c4ccnnc4)c3c2)cc1NS(=O)(=O)c1ccc(F)cc1F [GSK2126458, 2,4-difluoro-N-(2-methoxy-5-(4-(pyridazin-4-yl)quinolin-6-yl)pyridin-3-yl)benzenesulfonamide] |  | 1.5 | 0.46 | 3.26 | 
6 | CS(=O)(=O)N1CCN(Cc2cc3nc(-c4cccc5[nH]ncc45)nc(N4CCOCC4)c3s2)CC1 [GDC0941, 2-(1H-indazol-4-yl)-6-((4-(methylsulfonyl)piperazin-1-yl)methyl)-4-morpholinothieno[3,2-d]pyrimidine] |  | 28 | 12 | 2.33 | 
7 | Cc1cn(-c2cc(NC(=O)c3ccc(C)c(Nc4nccc(-c5cccnc5)n4)c3)cc(C(F)(F)F)c2)cn1 [AMN107] |  | 353 | > 10000 |  | 28
8 | CC(C)n1nc(-c2ccc3oc(N)nc3c2)c2c(N)ncnc21 [INK128, 5-(4-amino-1-isopropyl-1H-pyrazolo[3 ,4-d]pyrimidin-3-yl)benzo[d]oxazol-2-amine] |  | 14.5 | 9.5 | 1.5 | 
9 | C[C@@H]1COCCN1c1cc(C2([S@](C)(=N)=O)CC2)nc(-c2cc[nH]c3nccc2-3)n1 [AZD6738] |  | 377 | > 10000 |  | 26
10 | N.N.[Cl][Pt][Cl] [Cisplatin, (SP-4-2)-diamminedichloroplatinum(II)] | more sensitive | 348 | 790 |  | 2.3
